# Measurements: patent publication US10342776B2, “Compositions and methods for controlling infections” (priority 2004, dated 2019)
# Legend:
# [1] = system: Bacteroides fragilis ATCC 25285; assay: Kinetics of growth inhibition of Bacteroides fragilis in WC broth with GML, plate colony counting; format: cell-based
# Protocol: The kinetics of growth-inhibition by GML of the obligate gram negative anaerobe Bacteroides fragilis ATCC 25285 was determined. An overnight culture of B. fragilis ATCC 25285 in Wilkens Chalgren (WC) broth was inoculated into fresh media (WC) to give a starting cell concentration of 1×10^7 cells/ml. […] […] Because growth of B. fragilis was inhibited by GML, it is expected that growth of the related gram negative anaerobe, Prevotella, would also be inhibited by GML.
# [2] = system: Gardnerella vaginalis (clinical isolate); assay: G. vaginalis liquid culture in dialyzable beef heart medium with GML, colony counting; format: cell-based
# Protocol: (§1) Cells (1.2×10^7/ml in a total volume of 25 ml of dialyzable beef heart medium) of a recent clinical isolate of the gram negative rod Gardnerella vaginalis in vitro were cultured for various lengths of time with various concentrations of GML. At the various time points, the concentration of bacteria in the cultures were determined by colony counting on chocolate agar plates. GML at concentrations as low as 5 μg/ml were bactericidal to G. vaginalis. […] This finding points to the likely efficacy of GML in vivo. Moreover, GML (5 μg/ml or greater) inhibited growth of G. vaginalis plated (0.1 ml at 1.2×10^7/ml) onto chocolate agar plates (Table 3; data obtained after 24 hours of culturing).
# [3] = system: Lactobacillus (L. crispatis); assay: In vitro growth of L. crispatis bacteria with GML; format: cell-based
# Source text: (§2) Thus, it was surprising to discover that a number of other bacterial genera (see below) were highly sensitive to the direct toxic effects of GML.
# [4] = system: Gardnerella vaginalis (clinical isolate); assay: G. vaginalis liquid culture with GML in the presence of 10% fetal calf serum; format: cell-based; settings: for Cells/ml (×10^7) at 24 hours: 10% fetal calf serum
# Protocol: as §1
# Staphylococcus aureus = settings: earlier work, U.S. application Ser. No. 10/986,512; cited from earlier work
# Salmonella = assay: Direct toxicity of GML to Salmonella; format: cell-based
# Source text: as §2
# Haemophilus influenzae = assay: Kinetic study of Haemophilus influenzae growth in Todd Hewitt medium with GML, CFU/ml; format: cell-based; settings: GML 50 μg/ml or 100 μg/ml; liquid culture up to 24 hours
# Protocol: The strain was inoculated (at a concentration of 1.2×10^6 CFU/ml) into 50 ml of Todd Hewitt medium containing various concentrations of GML. The cultures were grown for 24 hours in an atmosphere of 7% carbon dioxide (balance air) with shaking at 100 RPM. At designated times samples were removed, and colony forming units (CFU) per milliliter were determined by plate counts on chocolate agar plates.
# [5] = GML concentrations up to 100 μg/ml
smiles,measurement,setting,value
"CCCCCCCCCCCC(=O)OCC(O)CO (stereo not drawn) [GML, glycerol monolaurate]",Cells/ml ×10^7 at 4.5 hours,"[1]; GML 1 μg/ml, 4.5 hours",16 Cells/ml ×10^7
same,Cells/ml ×10^7 at 25 hours,[1]; GML 1 μg/ml,130 Cells/ml ×10^7
same,Cells/ml ×10^7 at 4.5 hours,"[1]; GML 10 μg/ml, 4.5 hours",1.4 Cells/ml ×10^7
same,Cells/ml ×10^7 at 25 hours,[1]; GML 10 μg/ml,150 Cells/ml ×10^7
same,Cells/ml ×10^7 at 4.5 hours,"[1]; GML 20 μg/ml, 4.5 hours",<0.01 Cells/ml ×10^7
same,fold fewer bacteria than the control culture,"[1]; GML 20 μg/ml, 4.5 hours","at least 1,000 fold"
same,regrowth of culture,"[1]; GML 20 μg/ml, 24 hours",regrowth was observed
same,Cells/ml ×10^7 at 25 hours,[1]; GML 20 μg/ml,200 Cells/ml ×10^7
same,Cells/ml ×10^7 at 4.5 hours,"[1]; GML 50 μg/ml, 4.5 hours",<0.01 Cells/ml ×10^7
same,Cells/ml ×10^7 at 25 hours,[1]; GML 50 μg/ml,<10 Cells/ml ×10^7
same,Cells/ml ×10^7 at 4.5 hours,"[1]; GML 100 μg/ml, 4.5 hours",<0.001 Cells/ml ×10^7
same,Cells/ml ×10^7 at 25 hours,[1]; GML 100 μg/ml,<10 Cells/ml ×10^7
same,growth of B. fragilis bacteria,[1]; GML 50 and 100 μg/ml,inhibited the growth
same,Cells/ml (×10^7) at 6 hours,[2]; GML 1 μg/ml,13 Cells/ml (×10^7)
same,Cells/ml (×10^7) at 24 hours,[2]; GML 1 μg/ml,208 Cells/ml (×10^7)
same,Cells/ml (×10^7) at 6 hours,[2]; GML 5 μg/ml,0.0002 Cells/ml (×10^7)
same,Cells/ml (×10^7) at 24 hours,[2]; GML 5 μg/ml,0.0004 Cells/ml (×10^7)
same,Cells/ml (×10^7) at 6 hours,[2]; GML 10 μg/ml,<0.000001 Cells/ml (×10^7)
same,Cells/ml (×10^7) at 24 hours,[2]; GML 10 μg/ml,<0.000001 Cells/ml (×10^7)
same,Cells/ml (×10^7) at 6 hours,[2]; GML 20 μg/ml,<0.000001 Cells/ml (×10^7)
same,Cells/ml (×10^7) at 24 hours,[2]; GML 20 μg/ml,<0.000001 Cells/ml (×10^7)
same,Cells/ml (×10^7) at 6 hours,[2]; GML 50 μg/ml,<0.000001 Cells/ml (×10^7)
same,Cells/ml (×10^7) at 24 hours,[2]; GML 50 μg/ml,<0.000001 Cells/ml (×10^7)
same,Cells/ml (×10^7) at 6 hours,[2]; GML 100 μg/ml,<0.000001 Cells/ml (×10^7)
same,Cells/ml (×10^7) at 24 hours,[2]; GML 100 μg/ml,<0.000001 Cells/ml (×10^7)
same,Cells/ml (×10^7) at 6 hours,[2]; GML 1000 μg/ml,<0.000001 Cells/ml (×10^7)
same,Cells/ml (×10^7) at 24 hours,[2]; GML 1000 μg/ml,<0.000001 Cells/ml (×10^7)
same,GML concentration bactericidal to G. vaginalis,[2]; liquid culture,≥ 5 µg/mL
same,resistance to direct toxicity by GML,[3],relatively resistant
same,effect on in vitro growth,[3]; GML concentrations up to 50 μg/ml,had no effect
same,effect on in vitro growth,[3]; [5],delayed (but did not stop) its growth
same,effect on stationary phase survival,[3]; [5],extended their stationary phase survival
same,Cells/ml (×10^7) at 24 hours,[4]; GML 1 μg/ml,210 Cells/ml (×10^7)
same,Cells/ml (×10^7) at 24 hours,[4]; GML 5 μg/ml,201 Cells/ml (×10^7)
same,Cells/ml (×10^7) at 24 hours,[4]; GML 10 μg/ml,160 Cells/ml (×10^7)
same,Cells/ml (×10^7) at 24 hours,[4]; GML 20 μg/ml,88 Cells/ml (×10^7)
same,Cells/ml (×10^7) at 24 hours,[4]; GML 50 μg/ml,1.8 Cells/ml (×10^7)
same,Cells/ml (×10^7) at 24 hours,[4]; GML 100 μg/ml,<0.03 Cells/ml (×10^7)
same,inhibition of growth of G. vaginalis,[4]; medium supplemented with fetal calf serum,effective in inhibiting the growth
same,resistance to direct toxic effects of GML,Staphylococcus aureus,relatively resistant
same,resistance to direct toxicity by GML,Salmonella,relatively resistant
same,growth of H. influenza organisms,Haemophilus influenzae,inhibited the growth
